Counter-ions that a name gives are not always drawn. Like-named read-outs stand apart in the source and are kept apart here.
Columns and labels:
Assay in all cases: In vitro MIC, Broth Dilution Method
Type in all cases: cell-based
Proteus mirabilis 2 = tested on: Proteus mirabilis 2
Method: (§1) The diluted agents prepared in Mueller-Hinton broth were dispensed from a Dynatech MIC 2000 machine, in 100 microliter (μL) volumes into 96 well trays and used immediately or frozen at -10° to -70° C. until needed. Using a Dynatech inoculator and inoculum trays, 1.5 μL of a 10^-2 dilution of an overnight culture was added to each well of the tray. The tops of the trays were then sealed with tape, and the trays were incubated overnight at 37° C. and then examined with a viewer. The lowest concentration at which no growth was observed was considered to be the minimum inhibitory concentration (MIC).

[1] = tested on: Staphylococcus aureus ATCC 29213; conditions: ATCC29213; Broth Dilution Method; Staphylococcus aureus ATCC 29213; read-out: In Vitro MIC
Method: as §1

[2] = tested on: Proteus vulgaris ATCC 6380
Method: as §1

[3] = tested on: Pseudomonas aeruginosa Stone 130; conditions: STONE130; Broth Dilution Method; Pseudomonas aeruginosa Stone 130; read-out: In Vitro MIC
Method: as §1

[4] = tested on: Citrobacter freundii BS-16
Method: as §1

[5] = tested on: Streptococcus faecalis ATCC 29212; conditions: Enterococcus faecalis, ATCC29212; Broth Dilution Method; Streptococcus faecalis ATCC 29212; read-out: In Vitro MIC
Method: as §1

Escherichia coli TEM-1 = conditions: TEM1, read-out: In Vitro MIC
Method: as §1

[6] = tested on: Enterobacter cloacae 5699
Method: as §1

[7] = tested on: Pseudomonas aeruginosa ATCC 27853; conditions: ATCC27853; Broth Dilution Method; Pseudomonas aeruginosa ATCC 27853; read-out: In Vitro MIC
Method: as §1

[8] = tested on: Staphylococcus aureus Smith; conditions: read-out: In Vitro MIC
Method: as §1

Serratia marcescens SM = conditions: read-out: In Vitro MIC
Method: as §1

Proteus mirabilis 90 = tested on: Proteus mirabilis 90
Method: as §1

[9] = tested on: Streptococcus pneumoniae 6301; conditions: Broth Dilution Method; Streptococcus pneumoniae 6301; read-out: In Vitro MIC
Method: as §1

Klebsiella pneumoniae A = conditions: Broth Dilution Method; Klebsiella pneumoniae A; read-out: In Vitro MIC
Method: as §1

Enterobacter cloacae P99 = conditions: P99, read-out: In Vitro MIC
Method: as §1

Escherichia coli 4 = tested on: Escherichia coli 4
Method: as §1

[10] = Proteus mirabilis, 2, read-out: In Vitro MIC
[11] = Broth Dilution Method, Enterobacter cloacae 5699, read-out: In Vitro MIC
[12] = Broth Dilution Method, Staphylococcus aureus Smith
[13] = Broth Dilution Method, Proteus mirabilis 90, read-out: In Vitro MIC
[14] = Broth Dilution Method, Escherichia coli 4, read-out: In Vitro MIC
[15] = ATCC6380, Broth Dilution Method, Proteus vulgaris ATCC 6380, read-out: In Vitro MIC
[16] = Citrobacter freundii, BS16, read-out: In Vitro MIC

| Structure (SMILES) | MIC (Proteus mirabilis 2; [10]) | MIC [1] | MIC [3] | MIC [5] | MIC (Escherichia coli TEM-1) | MIC [6, 11] | MIC [7] | MIC [8, 12] | MIC (Proteus mirabilis 90; [13]) | MIC [9] | MIC (Klebsiella pneumoniae A) | MIC (Enterobacter cloacae P99) | MIC (Escherichia coli 4; [14]) | MIC [2, 15] | MIC [4, 16] | MIC (Serratia marcescens SM; Serratia marcescens) | further results |
| --- | --- | --- | --- | --- | --- | --- | --- | --- | --- | --- | --- | --- | --- | --- | --- | --- | --- |
| CCn1cc(C(=O)O)c(=O)c2cc(F)c(N3CCN(C=N[C@@H]4C(=O)N5C(C(=O)O)=C(COC(C)=O)CS[C@H]45)CC3)cc21 [Compound I, [6R-[6α,7β(Z)]]-7-[4-[[[3-[Acetyloxy)methyl]-2-carboxylic-8-oxo-5-thia-1-azabicyclo[4..0]oct-2-en-7-yl]imino]methyl]-1-piperazinyl]-1-ethyl-6-fluoro-1,4-dihydro-4-oxo-3-quinolinecarboxylic acid monosodium salt] | 0.063 µg/mL | 2 µg/mL | 1 µg/mL | 4 µg/mL | 0.063 µg/mL | 0.125 µg/mL | 8 µg/mL | 0.25 µg/mL | 0.5 µg/mL | 0.5 µg/mL | 0.125 µg/mL | 0.063 µg/mL | 0.125 µg/mL |  |  |  | MIC ([2]; Proteus vulgaris, ATCC6380, read-out: In Vitro MIC): 0.063 µg/mL; MIC ([4]; BS16, Broth Dilution Method, Citrobacter freundii BS-16, read-out: In Vitro MIC): 0.25 µg/mL; MIC (Serratia marcescens SM; Broth Dilution Method, Serratia marcescens SM): 0.125 µg/mL |
| CCn1cc(C(=O)O)c(=O)c2cc(F)c(N3CCN(C=N[C@@H]4C(=O)N5C(C(=O)O)=C(CSc6nc(=O)c(=O)[nH]n6C)CS[C@H]45)CC3)cc21 [Compound J, [6R-[6α,7β(Z)]]-7-[4-[[[2-Carboxy-3-[[(1,2,5,6-tetrahydro-2-methyl-5,6-dioxo-1,2,4-triazin-3-yl)thio]methyl]-8-oxo-5-thia-1-azabicyclo[4.2.0]-oct-2-en-7-yl]-imino]methyl]-1-piperazinyl]-ethyl-6-fluoro-1,4-dihydro-4-oxo-3-quinolinecarboxylic acid disodium salt] |  | 2 µg/mL | 8 µg/mL | 0.25 µg/mL | 0.25 µg/mL | 0.25 µg/mL | 16 µg/mL |  |  | 2 µg/mL | 0.5 µg/mL | 0.5 µg/mL |  | 0.125 µg/mL | 0.5 µg/mL | 0.5 µg/mL | MIC (Proteus mirabilis 2; Broth Dilution Method, Proteus mirabilis 2, read-out: In Vitro MIC): 0.5 µg/mL; MIC ([8]; Staphylococcus aureus): 1 µg/mL; MIC (Proteus mirabilis 90; Proteus mirabilis, 90, read-out: In Vitro MIC): 1 µg/mL; MIC (Escherichia coli 4; Escherichia coli, 4, read-out: In Vitro MIC): 0.25 µg/mL |
| CCn1cc(C(=O)O)c(=O)c2cc(F)c(N3CCCN(C=N[C@@H]4C(=O)N5[C@@H]4SC(C)(C)[C@@H]5C(=O)O)CC3)nc21 [Compound K, [2S-(2α,5α,6β)]-7-[4-[[2-Carboxy-3,3-dimethyl-7-oxo-4-thia-1-azabicyclo[3.2.0]hept-6-yl)-imino]methyl]hexahydro-1H, 1,4-diazepin-1-yl]-1-ethyl-6-fluoro-1,4-dihydro-4-oxo-1,8-naphthyridine--carboxylic acid disodium salt] | 4 µg/mL | 16 µg/mL | 8 µg/mL | 128 µg/mL | 1 µg/mL |  |  | 2 µg/mL | 8 µg/mL | 2 µg/mL | 2 µg/mL | 1 µg/mL | 2 µg/mL | 2 µg/mL | 4 µg/mL | 4 µg/mL | MIC ([6]; Enterobacter cloacae, 5699, read-out: In Vitro MIC): 4 µg/mL |
